{"source": "patent US20260314594A1", "about": "“METHODS OF ENHANCING POLLEN VIABILITY OF PLANTS” (ACADEMIA SINICA, priority 2022, published 2026)", "key": {"[1]": {"tested_on": "Easter lily pollen", "assay": "Easter lily pollen germination in vitro (germination rate in germination medium)", "assay_type": "cell-based, Easter lily (Lilium longiflorum Thunb. cv White Heaven)", "experimental": "Pollen and stigma exudate (SE) were collected from more than ten thousand Easter lily (Lilium longiflorum Thunb. cv White Heaven) flowers. After dehydration at room temperature for 4 to 5 days, pollen grains were collected from dehydrated anthers. Pistils were harvested and used for SE collection. In general, 20~50 μL SE collected from a single ‘White Heaven’ pistil will be stored at −20° C. for further usage.\n(§1) Lily pollen was cultured in a germination medium (GM) containing 12.7 mM CaCl2), 1.62 mM H3BO3, 9.9 mM KNO3, and 10% sucrose, pH5.2 at 28° C. for 2 hours with shaking at 50 rpm in the dark. Tobacco (Nicotiana tabacum) pollen was germinated in GM containing 1 mM CaCl2), 1 mM KCl, 1.6 mM H3BO3, 5% sucrose, 30 μM CuSO4, 15 mM MES, and 12.5% PEG4000, pH 5.9 at 25° C. for 2 hours with shaking at 50 rpm in the dark. Arabidopsis (Arabidopsis thaliana, Col-0) pollen was germinated in GM containing 5 mM CaCl2), 1 mM MgSO4·5 mM KCl·0.01% H3BO3, 10% Sucrose, pH 7.5 at 25° C. for 2 hours with shaking at 50 rpm in the dark. An Olympus BX51 microscope recorded germinating pollen. Pollen germination rate was calculated using the formula below: Pollen germination rate (%)=number of germinated pollen grains per field of view by the total number of pollen grains per field of view X100.\n(§2) ImageJ measured pollen tube length and Western blot band intensity quantification. All P-values were calculated by One-way ANOVA (Analysis Of Variance) and Tukey's post hoc tests with SPSS\nTo validate the effect of HOPA on the stimulation of pollen germination, lily pollen grains were cultured in the GM containing 0, 10, 50, 100, and 200 ppm (part per million) of artificial HOPA for different time intervals.\nSE has shown its effect on restoring the lost germination capability of pollen stored at low temperatures for a specific period (FIGS. 1A-1E). To validate whether the purified HOPA is the cause to rescue pollen germination capability, pollen grains stored for different time intervals (1 day, 2.5, or 5 months) were subjected to germination assays with or without 100 ppm artificial HOPA present in the GM.\nHigh temperature is an adverse factor for pollen viability (Rang et al., 2011). We further investigated the effect of HOPA on the restoration of pollen viability after heat damage. Freshly collected lily pollen were pre-heat treatments at 28, 37, and 42° C. for 4 hours, followed by subjecting for germination in the GM with or without HOPA at 28° C. for 2 hours.\nLow temperature is another adverse factor for pollen germination and growth. […] For the control, about 8% of pollen was germinated after 3-hour culture, but HOPA rescued the pollen germination up to about 29% germination rate (FIGS. 6E-6F)."}, "[2]": {"tested_on": "lily pollen tube", "assay": "Lily pollen tube elongation", "assay_type": "cell-based, Easter lily (Lilium longiflorum Thunb. cv White Heaven)", "settings": "100 ppm HOPA", "experimental": "as §1, §2\nWe germinated lily pollen in GM with or without 100 ppm HOPA at 28° C. for different time intervals to obtain their growth rates."}, "[3]": {"tested_on": "Nicotiana tabacum pollen", "assay": "Tobacco pollen germination in vitro", "assay_type": "cell-based", "settings": "HOPA at 25° C. for 2 hours; FIG. 8A: 50-1600 ppm, 1.5 hours", "experimental": "as §1, with “Tobacco (Nicotiana tabacum) pollen was germinated in GM containing 1 mM CaCl2), 1 mM KCl, 1.6 mM H3BO3, 5% sucrose, 30 μM CuSO4, 15 mM MES, and 12.5% PEG4000, pH 5.9 at 25° C. for 2 hours with shaking at 50 rpm in the dark.” left out\nas §2\n(§3) To investigate the possibility that HOPA can stimulate diverse-species pollen germination, we examined Nicotiana tabacum and Arabidopsis thaliana (Col-0) pollen in GM with or without HOPA at 25° C. for 2 hours. […] Those results reveal the promising universal function of HOPA in stimulating pollen germination."}, "[4]": {"tested_on": "Arabidopsis thaliana (Col-0) pollen", "assay": "Arabidopsis pollen germination in vitro", "assay_type": "cell-based", "settings": "HOPA at 25° C. for 2 hours; FIG. 8B: 200 ppm, 2.5 hours", "experimental": "as §1, with “Arabidopsis (Arabidopsis thaliana, Col-0) pollen was germinated in GM containing 5 mM CaCl2), 1 mM MgSO4·5 mM KCl·0.01% H3BO3, 10% Sucrose, pH 7.5 at 25° C. for 2 hours with shaking at 50 rpm in the dark.” left out\nas §2, §3"}}, "data": [{"smiles": "CC(C)(CO)C(O)C(=O)NCCCC(=O)O", "note": "(centres unmarked) [HOPA, hopantenic acid]", "values": [{"measurement": "pollen germination rate, HOPA dose response", "setting": "[1]; 0, 10, 50, 100 and 200 ppm HOPA in GM, 28° C., FIG. 5: 2 hours, pollen stored at 4° C. one week", "value": "linear-gradient increase in a HOPA dosage-dependent manner"}, {"measurement": "pollen germination, significance of stimulation", "setting": "[1]; 10-200 ppm HOPA, 28° C., 2 hours, pollen stored at 4° C. one week (FIGS. 5A-5G)", "value": "significantly stimulates Easter lily pollen germination"}, {"measurement": "pollen germination rate at low temperature", "setting": "[1]; 18° C., 3-hour culture, 100 ppm HOPA, control about 8% (FIGS. 6E-6F)", "value": "about 29%"}, {"measurement": "pollen germination at low temperature, in words", "setting": "[1]; 18° C., 3-hour growth, 100 ppm HOPA (FIGS. 6E-6F)", "value": "partially rescued pollen germination rate at low-temperature conditions"}, {"measurement": "pollen germination rates of HOPA compared with 1/10 SE", "setting": "[1]; 100-200 ppm HOPA (FIG. 5G) vs 1/10 SE (about 785 ppm HOPA)", "value": "comparable effects in pollen germination rates"}, {"measurement": "pollen germination of long-time stored pollen", "setting": "[1]; pollen stored at 4° C. for 1 day, 2.5 or 5 months, 100 ppm HOPA, 28° C., 2 hours (FIGS. 6A-6B)", "value": "validly stimulates pollen germination in all stored pollen grains, especially for 5-month stored pollen germination"}, {"measurement": "pollen germination after heat damage", "setting": "[1]; pre-heat treatment at 28, 37 and 42° C. for 4 hours, then 100 ppm HOPA at 28° C. for 2 hours (FIGS. 6C-6D)", "value": "compromised the heat stress causing a decrease in pollen germination"}, {"measurement": "pollen tube elongation rate, in words", "setting": "[2]; 28° C. (FIG. 7), compared to GM only", "value": "accelerated the pollen tube elongation rate"}, {"measurement": "pollen tube elongation rate (slope)", "setting": "[2]; 28° C., different time intervals, control slope 0.0066 (FIG. 7)", "value": 0.0109}, {"measurement": "Nicotiana tabacum pollen germination", "setting": "[3]", "value": "significantly stimulated"}, {"measurement": "Arabidopsis thaliana pollen germination", "setting": "[4]", "value": "significantly stimulated"}]}]}
